Data reported in patent US12275737B2, “Polymorphs of a kinase inhibitor, pharmaceutical compositions containing such a compound, preparation methods, and applications” (Meryx, Inc., priority 2019, dated 2025).
Counter-ions that a name gives are not always drawn. Like-named read-outs stand apart in the source and are kept apart here.

Assays:
[1] = Pharmacokinetics after oral capsule in male beagle dogs; assay type: in vivo; settings: for absorption in the body compared with the free alkali of the compound of Formula I: conclusion from Table 6
Experimental: Nine male beagle dogs are divided into three groups, three in each group. They are each respectively administrated a 5 mg/kg oral capsule (PO) of Crystal Form 1, Crystal Form 2 and free base of the compound of Formula I (the dose is calculated according to the dose of the free base). Blood is collected from the jugular vein before administration and after administration for 15 minutes, 30 minutes, 1 hour, 2 hours, 4 hours, 6 hours, 8 hours, 10 hours, and 24 hours, and the plasma is separated and stored in a refrigerator at −80° C. LC-MS is subsequently used for analysis.

[2] = Determination of crystal form stability; assay type: physicochemical
[3] = Determination of saturated solubility; assay type: physicochemical; settings: shaken 4 hours; for saturated solubility: 37° C.
Experimental: An appropriate amount of a sample of the compound is supersaturated in water at a pH of 1-8 and shaken at 37° C. for 4 hours with a shaker. The compound is sampled, centrifuged, then the supernatant is diluted and tested by HPLC. Calculations are compared to an external standard.
The saturated solubility of the compound of Crystal Form 1 and Crystal Form 2 of the compound of Formula I and MRX-2843 free base at 37° C. in different pH values are shown in Table 3.

[4] = 5 mg/kg (as free base), plasma, trihydrochloride
[5] = male, beagle, dog, plasma, po, 5 mg/kg, 5 mg/kg (as free base)
[6] = stored at 40° C./75% RH for 1, 3 and 6 months, trihydrochloride
[7] = pH 2.0, water, trihydrochloride
[8] = pH 3.0, water, trihydrochloride
[9] = pH 4.5, water, trihydrochloride
[10] = pH 6.0, water, trihydrochloride
[11] = pH 6.8, water, trihydrochloride
[12] = pH 7.4, water, trihydrochloride
[13] = pH 8.0, water, trihydrochloride
[14] = 5 mg/kg (as free base), plasma, listed as Free base of the compound of Formula I

In the case of `CN1CCN(Cc2ccc(-c3cn([C@H]4CC[C@H](O)CC4)c4nc(NCCC5CC5)ncc34)cc2)CC1` [Crystal Form 1, trihydrochloride], the Cmax [1, 4] is reported as 0.133 µg/mL, the “absorption in the body compared with the free alkali of the compound of Formula I” value ([1]; 5 mg/kg) is reported as “better absorbed” and the AUC(0-inf) [1, 5] is reported as 1.62 µg·h/mL. For the same compound, the AUC(0-t) [1, 5] was 1.4 µg·h/mL, the Tmax ([1]; male, beagle, dog, plasma, po, 5 mg/kg, 5 mg/kg (as free base), plasma, read-out: Tmax) was 2.67 h and the “crystal form after storage” value ([2]; stored at 25° C./60% RH for 1, 3 and 6 months) was “remains unchanged”. The “crystal form after storage” value [2, 6] was “remains unchanged”, the saturated solubility [3, 7] was 489.60 mg/mL and the saturated solubility [3, 8] was 522.25 mg/mL. It also gave a saturated solubility [3, 9] of 513.40 mg/mL, a saturated solubility [3, 10] of 460.64 mg/mL and a saturated solubility [3, 11] of 554.17 mg/mL. It also gave a saturated solubility [3, 12] of 494.83 mg/mL, a saturated solubility [3, 13] of 562.59 mg/mL and a solubility at 4 h ([3]; water, 37 °C, pH 1, simulated gastric fluid, thermodynamic from solid, pH 1.0, water) of 587 mg/mL.
In the case of `CN1CCN(Cc2ccc(-c3cn([C@H]4CC[C@H](O)CC4)c4nc(NCCC5CC5)ncc34)cc2)CC1` [Crystal Form 2, trihydrochloride], the AUCInf [1, 4] is reported as 1,530 h * ng/mL, the AUClast [1, 4] is reported as 1,323 h * ng/mL and the Cmax [1, 4] is reported as 0.125 µg/mL. The Tmax [1, 4] was 2.00 h, the “absorption in the body compared with the free alkali of the compound of Formula I” value ([1]; 5 mg/kg) was “better absorbed” and the “crystal form after storage” value ([2]; stored at 5° C. for 18 and 24 months) was “remains unchanged”. For the same compound, the “crystal form after storage” value ([2]; stored at 25° C./60% RH for 1, 3, 6, 9, 12, 18 and 24 months) was “remained unchanged”, the “crystal form after storage” value [2, 6] was “unchanged” and the saturated solubility ([3]; pH 1.0, water, trihydrochloride) was 535.05 mg/mL. For the same compound, the saturated solubility [3, 7] was 531.72 mg/mL, the saturated solubility [3, 8] was 512.80 mg/mL and the saturated solubility [3, 9] was 527.84 mg/mL. It also gave a saturated solubility [3, 10] of 546.95 mg/mL, a saturated solubility [3, 11] of 557.34 mg/mL and a saturated solubility [3, 12] of 516.01 mg/mL. For the same compound, the saturated solubility [3, 13] was 479.26 mg/mL.
In the case of `CN1CCN(Cc2ccc(-c3cn([C@H]4CC[C@H](O)CC4)c4nc(NCCC5CC5)ncc34)cc2)CC1` [MRX-2843 free base, reference compound], the AUCInf [1, 14] is reported as 1,318 h * ng/mL, the AUClast [1, 14] is reported as 1,169 h * ng/mL and the Cmax [1, 14] is reported as 0.285 µg/mL. The Tmax [1, 14] was 3.33 h, the saturated solubility ([3]; pH 1.0, water) was 301.086 mg/mL and the saturated solubility ([3]; pH 2.0, water) was 3.110 mg/mL. For the same compound, the saturated solubility ([3]; pH 3.0, water) was 1.516 mg/mL, the saturated solubility ([3]; pH 4.5, water) was 2.034 mg/mL and the saturated solubility ([3]; pH 6.0, water) was 0.018 mg/mL. For the same compound, the saturated solubility ([3]; pH 6.8, water) was 0.008 mg/mL, the saturated solubility ([3]; pH 7.4, water) was 0.007 mg/mL and the saturated solubility ([3]; pH 8.0, water) was 0.008 mg/mL.
